These results are taken from patent US20250235148A1, “IBS RELATED TESTING AND TREATMENT” (IBS-80, LLC, priority 2021, published 2025).

The test system of data set [1] is skin of each patient. Nature of the data set: skin patch testing with the first 28 common test materials (Example 2). As to conditions: of 15 symptomatic patients (IBS or IBS-like symptoms).
In data set [2] the test system is skin of each patient. Particulars: human, in vivo, 48 h.

Like-named read-outs stand apart in the source and are kept apart here.

On to `O=C(OOC(=O)c1ccccc1)c1ccccc1` [benzoyl peroxide], for which, in the data set on skin of each patient [1], the “patients with a positive patch test” value was 1.
On to `CCCCCCCCCCCCOC(=O)c1cc(O)c(O)c(O)c1` [dodecyl gallate], for which, in the data set with skin of each patient [2], the “patients with a positive patch test” value is given as 1.
`C=C(C)[C@H]1CC=C(C)CC1` [dipentene]: the “patients with a positive patch test” value in the data set on skin of each patient [1] was 1.
